pIC50: −log10 of the molar value.
Legend:
[1] = target: Recombinant human IDO1 (rhIDO1) (Homo sapiens (Human), UniProt P14902); test: Enzymatic assay for IDO1 activity; format: biochemical; conditions: rhIDO1 9 nM, 80 μM TRP, 37° C. 30 min
Experimental: Recombinant human IDO1 (rhIDO1) was expressed and purified from cultures of EC538 strain of E. coli transformed with pREP4 and pQE9-IDO plasmid. Reaction mixes were set up in 384-well microplates containing 50 mM phosphate buffer, 10 mM ascorbic, 10 μM methylene blue, 100 μg/mL catalase, 80 μM TRP, 0.01% Tween 20 (v/v) mixed with rhIDO1 (15 μL) at a final concentration of 9 nM in a total volume of 30 μL assay medium. The plates were incubated at 37° C. for 30 min, and the enzymatic reaction was terminated by adding piperidine (200 mM) and heated at 65° C. for 20 min. Fluorescence intensity was read at λex 400 nm and λem 500 nm. Test compounds were dissolved in 100% DMSO and pre-diluted in assay medium prior to adding rhIDO1. IDO1 inhibition (%) was calculated as
[formula] All experiments were carried out in triplicates, and statistical Analyses were conducted in Prism v5 (Graphpad Software, Inc., La Jolla, Calif., USA). Cell-Based Assay for IDO1 Inhibition

[2] = target: human IDO1 (LLTC-hIDO1 cells) (Homo sapiens, UniProt P14902); test: Cell-based assay for IDO1 inhibition (kynurenine in supernatant); conditions: IDO1-transfected Lewis Lung carcinoma cells, 24 h; read-out: Cellular IC50
Experimental: Culture supernatant from each well was then transferred into a fresh, flat-bottomed 96-well plate, mixed with trichloroacetic acid (10% final concentration) and incubated for 20 min at 60° C. […] The absorbance of each well was read at 480 nm, and the concentration that inhibited 50% cellular enzyme activity was calculated.

[3] = test system: Lewis Lung carcinoma cells transfected to express IDO1 (LLTC-hIDO1); test: MTT cell viability in the cellular IDO1 assay; format: cell-based; conditions: same experiment as cellular IDO1 assay
Experimental: The viability of the cells in each well in the same experiment was determined using the 3-(4,5-dimethylthiazolyl-2-yl)-2,5-diphenyltetrazolium bromide (MTT) colourimetric assay. After the removal of the supernatant for determination of IDO1 inhibition, the cells were incubated with MTT (500 μg/mL) until crystal formation was observed. […] DMSO (100 μL/well) was added to dissolve the crystals and then the absorbance in each well was measured at 570 nm. Cell viability in each well was expressed as a percentage of untreated controls. Triplicate cultures were used for all experiments unless stated otherwise.

Recombinant human IDO1 (rhIDO1), sequence (P14902 whole entry): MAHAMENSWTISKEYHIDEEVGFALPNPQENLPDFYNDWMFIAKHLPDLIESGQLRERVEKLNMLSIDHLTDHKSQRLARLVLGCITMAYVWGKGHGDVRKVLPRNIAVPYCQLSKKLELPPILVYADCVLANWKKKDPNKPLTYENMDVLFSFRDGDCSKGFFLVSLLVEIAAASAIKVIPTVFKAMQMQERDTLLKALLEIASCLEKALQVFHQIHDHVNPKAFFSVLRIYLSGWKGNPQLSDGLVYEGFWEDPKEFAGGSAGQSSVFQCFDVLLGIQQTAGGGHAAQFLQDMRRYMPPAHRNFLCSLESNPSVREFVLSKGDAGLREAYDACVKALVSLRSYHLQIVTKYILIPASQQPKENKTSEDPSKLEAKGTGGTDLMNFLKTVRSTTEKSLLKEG

| Compound | pIC50 [1] | pIC50 [2] | pIC50 [3] |
| --- | --- | --- | --- |
| Cc1nc2onc(N)c2c(C)c1Br [Compound 1, 5-Bromo-4,6-dimethylisoxazolo[5,4-b]pyridin-3-amine] | 5.00 to 6.00 | > 6.00 | < 4.00 |
| Nc1noc2ncccc12 [Compound 2, Isoxazolo[5,4-b]pyridin-3-amine] | < 4.00 | 4.00 to 5.00 | < 4.00 |
| Cc1cc(C)c2c(N)noc2n1 [Compound 4, 4,6-Dimethylisoxazolo[5,4-b]pyridin-3-amine] | 4.00 to 5.00 | 5.00 to 6.00 | < 4.00 |
| Cc1nc2onc(N)c2c(C)c1C [Compound 5, 4,5,6-Trimethylisoxazolo[5,4-b]pyridin-3-amine] | 4.00 to 5.00 | – | – |
| Nc1noc2ncc(Br)cc12 [Compound 6, 5-Bromoisoxazolo[5,4-b]pyridin-3-amine] | 4.00 to 5.00 | > 6.00 | < 4.00 |
| Cc1ccc2c(N)noc2n1 [Compound 7, 6-Methylisoxazolo[5,4-b]pyridin-3-amine] | < 4.00 | – | – |
| Nc1noc2ncc(Cl)cc12 [Compound 8, 5-Chloroisoxazolo[5,4-b]pyridin-3-amine] | 4.00 to 5.00 | > 6.00 | < 4.00 |
| Nc1noc2nc3ccccc3cc12 [Compound 9, Isoxazolo[5,4-b]quinolin-3-amine] | 4.00 to 5.00 | 5.00 to 6.00 | < 4.00 |
| Nc1noc2nc3c(cc12)CCCC3 [Compound 10, 5,6,7,8-Tetrahydroisoxazolo[5,4-b]quinolin-3-amine] | < 4.00 | 5.00 to 6.00 | < 4.00 |
| Nc1noc2ncncc12 [Compound 12, Isoxazolo[5,4-d]pyrimidin-3-amine] | < 4.00 | 5.00 to 6.00 | < 4.00 |
| Nc1noc2nccc(-c3ccccc3)c12 [Compound 13, 4-Phenylisoxazolo[5,4-b]pyridin-3-amine] | < 4.00 | < 4.00 | < 4.00 |
| Nc1noc2ncc(F)cc12 [Compound 14, 5-Fluoroisoxazolo[5,4-b]pyridin-3-amine] | < 4.00 | – | – |
| Nc1noc2nc(-c3ccccc3)ccc12 [Compound 15, 6-Phenylisoxazolo[5,4-b]pyridin-3-amine] | < 4.00 | 5.00 to 6.00 | < 4.00 |
| Nc1noc2ncc(I)cc12 [Compound 16, 5-Iodoisoxazolo[5,4-b]pyridin-3-amine] | 5.00 to 6.00 | > 6.00 | < 4.00 |
| Nc1noc2ccncc12 [Compound 17, Isoxazolo[4,5-c]pyridin-3-amine] | < 4.00 | – | – |
| CN(C)c1ccc2c(N)noc2n1 [Compound 18, N^6,N^6-Dimethylisoxazolo[5,4-b]pyridine-3,6-diamine] | < 4.00 | – | – |
| CN(C)c1ccnc2onc(N)c12 [Compound 19, N^4,N^4-Dimethylisoxazolo[5,4-b]pyridine-3,4-diamine] | < 4.00 | – | – |
| CNc1noc2nc(C)c(Cl)c(C)c12 [Compound 20, 5-Chloro-N^3,4,6-trimethylisoxazolo[5,4-b]pyridin-3-amine] | < 4.00 | 4.00 to 5.00 | < 4.00 |
| Nc1noc2ncc(-c3ccccc3O)cc12 [Compound 28, 2-(3-Aminoisoxazolo[5,4-b]pyridin-5-yl)phenol] | < 4.00 | – | – |
| Nc1noc2ncc(-c3ccc(F)cc3)cc12 [Compound 30, 5-(4-Fluorophenyl)isoxazolo[5,4-b]pyridin-3-amine] | < 4.00 | – | – |
| Cc1cc(Cl)nc2onc(N)c12 [Compound 42, 6-Chloro-4-methylisoxazolo[5,4-b]pyridin-3-amine] | > 6.00 | > 6.00 | < 4.00 |

| Compound | pIC50 [1] | pIC50 [2] | pIC50 [3] |
| --- | --- | --- | --- |
| Nc1ccc2c(N)noc2n1 [Compound 43, Isoxazolo[5,4-b]pyridine-3,6-diamine] | < 4.00 | – | – |
| Cc1cnc2onc(N)c2c1 [Compound 44, 5-Methylisoxazolo[5,4-b]pyridin-3-amine] | < 4.00 | 4.00 to 5.00 | < 4.00 |
| Cc1cc2c(N)noc2nc1C [Compound 45, 5,6-Dimethylisoxazolo[5,4-b]pyridin-3-amine] | < 4.00 | 4.00 to 5.00 | < 4.00 |
| Cc1cc(C(F)(F)F)c2c(N)noc2n1 [Compound 46, 6-Methyl-4-(trifluoromethyl)isoxazolo[5,4-b]pyridin-3-amine] | < 4.00 | 4.00 to 5.00 | < 4.00 |
| Nc1noc2nc(C(F)(F)F)ccc12 [Compound 47, 6-(Trifluoromethyl)isoxazolo[5,4-b]pyridin-3-amine] | > 6.00 | 5.00 to 6.00 | < 4.00 |
| CC(C)c1ccc2c(N)noc2n1 [Compound 48, 6-Isopropylisoxazolo[5,4-b]pyridin-3-amine] | < 4.00 | 4.00 to 5.00 | < 4.00 |
| Nc1noc2ncc([N+](=O)[O-])cc12 [Compound 49, 5-Nitroisoxazolo[5,4-b]pyridin-3-amine] | 5.00 to 6.00 | > 6.00 | < 4.00 |
| CCOC(=O)c1cc2c(N)noc2nc1C(F)(F)F [Compound 50, Ethyl 3-amino-6-(trifluoromethyl)isoxazolo[5,4-b]pyridine-5-carboxylate] | 4.00 to 5.00 | 4.00 to 5.00 | < 4.00 |
| COc1ccnc2onc(N)c12 [Compound 51, 4-Methoxyisoxazolo[5,4-b]pyridin-3-amine] | < 4.00 | – | – |
| Cc1nc2onc(N)c2c(C)c1OC(F)F [Compound 52, 5-(Difluoromethoxy)-4,6-dimethylisoxazolo[5,4-b]pyridin-3-amine] | < 4.00 | 4.00 to 5.00 | < 4.00 |
| CCOC(=O)c1cc2c(N)noc2nc1C [Compound 53, Ethyl 3-amino-6-methylisoxazolo[5,4-b]pyridine-5-carboxylate] | < 4.00 | – | – |
| Nc1noc2nc(N3CCOCC3)c(F)cc12 [Compound 55, 5-Fluoro-6-morpholinoisoxazolo[5,4-b]pyridin-3-amine] | < 4.00 | – | – |
| Nc1noc2nc3c(cc12)CCCCC3 [Compound 60, 6,7,8,9-Tetrahydro-5H-cyclohepta[b]isoxazolo[4,5-e]pyridin-3-amine] | < 4.00 | – | – |
| CC1(C)CCc2nc3onc(N)c3cc2C1 [Compound 61, 6,6-Dimethyl-5,6,7,8-tetrahydroisoxazolo[5,4-b]quinolin-3-amine] | < 4.00 | – | – |
| Nc1noc2nc3c(cc12)COCC3 [Compound 62, 7,8-Dihydro-5H-isoxazolo[5,4-b]pyrano[3,4-e]pyridin-3-amine] | < 4.00 | – | – |
| Nc1noc2nc(Oc3ccccc3)ccc12 [Compound 83, 6-Phenoxyisoxazolo[5,4-b]pyridin-3-amine] | < 4.00 | – | – |
| Nc1noc2nc(Oc3cccc(Cl)c3)ccc12 [Compound 85, 6-(3-Chlorophenoxy)isoxazolo[5,4-b]pyridin-3-amine] | < 4.00 | – | – |
| Nc1noc2nc(Oc3ccc(Cl)cc3)ccc12 [Compound 86, 6-(4-Chlorophenoxy)isoxazolo[5,4-b]pyridin-3-amine] | < 4.00 | – | – |
| COc1cccc(Oc2ccc3c(N)noc3n2)c1 [Compound 91, 6-(3-Methoxyphenoxy)isoxazolo[5,4-b]pyridin-3-amine] | < 4.00 | – | – |
| COc1ccc(Oc2ccc3c(N)noc3n2)cc1 [Compound 92, 6-(4-Methoxyphenoxy)isoxazolo[5,4-b]pyridin-3-amine] | < 4.00 | – | – |

From patent publication US10888567B2, “Inhibitors of tryptophan dioxygenases (IDO1 and TDO) and their use in therapy” (AUCKLAND UNISERVICES LIMITED, priority 2014, dated 2021)
